Experimental data reported in patent US12686697B2, “Advantageous morphic form of AT-527 hemi-sulfate salt” (Atea Pharmaceuticals, Inc., priority 2021, dated 2026).
Entries after “also recorded” stand apart in the source; their conditions may differ. Where a name gives a salt, the structure may show the parent alone.

Tests used:
[1] = Stability of 5 kg lot of Form III at 25° C.±2° C., 60% RH±5% RH; format: physicochemical; settings: stored at about 25° C. and about 60% RH, three months
Description: Example 6. Stability of 5 kg Lot of Form III at 25° C.±2° C., 60% RH±5% RH
These properties are advantageous for use in clinical trials or clinical use of the compound.

[2] = Stability of 5 kg lot of Form III at 40° C.±2° C., 75% RH±5% RH; format: physicochemical; settings: 40° C. and 75% RH, three months
Description: Example 7. Stability of 5 kg Lot of Form III at 40° C.±2° C., 75% RH±5% RH
Further studies on the stability of Compound A Form III were conducted at elevated temperature and humidity. These conditions are less desirable for the storage of active pharmaceutical ingredients and may lead to accelerated degradation.

[3] = Stability of 0.1 kg lot of Form III under ambient conditions (15° C.-25° C., ambient RH); format: physicochemical; settings: 12 months / one year
Description: Example 8. Stability of 0.1 kg Lot of Form III
Additional stability studies were performed for smaller lots of Compound A Form III. These studies were performed in stability chambers set to 25° C. and 60% RH, 40° C. and 75% RH for up to 8 weeks. In other embodiments the studies can be performed for up to 4 weeks, for up to 2 weeks and for one week. The stability studies were also performed under ambient conditions, 15-25° C. with no control over the humidity.

[4] = clinical trials; cited from earlier work
[5] = in vivo; cited from earlier work
[6] = system: SARS-CoV-2; settings: cited from earlier work
[7] = system: HCV; settings: non-cirrhotic and cirrhotic HCV-infected patients, single and multiple doses; cited from earlier work

SMILES | Absorption of water from the atmosphere upon storage [1] | Degradation measured by HPLC-UV [1] | Degradation (decrease in purity, generation of impurities) [2] | Decrease in purity [3] | Drug related serious adverse events [4] | Tissue concentration [5] | Potency against SARS-CoV-2 [6] | Antiviral reduction in HCV-infected cohorts [7]
CNc1nc(N)nc2c1ncn2[C@@H]1O[C@H](CO[P@@](=O)(N[C@@H](C)C(=O)OC(C)C)Oc2ccccc2)[C@@H](O)[C@@]1(C)F [Compound A Form III, hemi-sulfate salt of isopropyl ((S)-(((2R,3R,4R,5R)-5-(2-amino-6-(methylamino)-9H-purin-9-yl)-4-fluoro-3-hydroxy-4-methyltetrahydrofuran-2-yl)methoxy)(phenoxy)phosphoryl)-L-alaninate] | does not appreciably absorb water | no measurable degradation | no measurable decrease in purity or generation of impurities; also recorded: no measurable degradation | little or no decrease; also recorded: no measurable decrease in purity |  |  |  | 
CNc1nc(N)nc2c1ncn2[C@@H]1O[C@H](CO[P@@](=O)(N[C@@H](C)C(=O)OC(C)C)Oc2ccccc2)[C@@H](O)[C@@]1(C)F [Compound A, hemi-sulfate salt of isopropyl ((S)-(((2R,3R,4R,5R)-5-(2-amino-6-(methylamino)-9H-purin-9-yl)-4-fluoro-3-hydroxy-4-methyltetrahydrofuran-2-yl)methoxy)(phenoxy)phosphoryl)-L-alaninate] |  |  |  |  | no drug related serious adverse events observed | disproportionately concentrate in the lung and the liver | potent | significant antiviral reduction
